This test addresses T1, human IL-17AA (Homo sapiens, UniProt Q16552).
T1 construct: host or cells: HEK (human embryonic kidney) cells
T1 sequence (Q16552 24-155) 1: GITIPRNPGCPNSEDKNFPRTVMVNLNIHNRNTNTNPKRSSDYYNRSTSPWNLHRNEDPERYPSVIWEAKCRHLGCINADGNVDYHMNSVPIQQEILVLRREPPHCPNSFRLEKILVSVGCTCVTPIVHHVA
T1 sequence (Q16552 24-155) 2: T1 sequence (Q16552 24-155) 1
Nature of the test: IL-8 release assay in human epithelial keratinocytes adult (HEKa). The test is classed as cell-based. Particulars: 3 ng/ml human IL-17AA + 10 ng/ml human TNFalpha, 68-72 h, IL-8 by HTRF, read-out: Rel EC50 L-8 release assay. In a few lines: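 IL-8 secretion, quantified by HTRF (665/620 nm) as percent of controls, served as the readout after 68–72 h culture of HEKa cells with compound plus IL-17AA (3 ng/ml final) and TNF-alpha (10 ng/ml final). Four-parameter logistic curves gave relative IC50 and Emax.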
Background: TR-FRET usually uses a lanthanide donor and a delayed reading to cut background.
Turning to `Cc1n[nH]c(C)c1-c1ccc(NC(=O)[C@@H](NC(=O)C2(F)CC2)[C@@H]2CCc3ccc(-c4ccnc(N5C[C@@H]6C[C@H]5CO6)n4)cc32)cc1` [Example 367, N-[(1S)-2-[4-(3,5-dimethyl-1H-pyrazol-4-yl)anilino]-1-[(1R)-6-[2-[(1S,4S)-2-oxa-5-azabicyclo[2.2.1]heptan-5-yl]pyrimidin-4-yl]indan-1-yl]-2-oxo-ethyl]-1-fluoro-cyclopropanecarboxamide], the concentration giving a half-maximal response (EC50) is under 100 nM.
The figure for `Cc1n[nH]c(C)c1-c1ccc(NC(=O)[C@@H](NC(=O)C2(F)CC2)[C@@H]2CCc3ccc(-c4cc(N5C[C@@H]6C[C@H]5CO6)ccn4)cc32)cc1` [Example 368, N-[(1S)-2-[4-(3,5-dimethyl-1H-pyrazol-4-yl)anilino]-1-[(1R)-6-[4-[(1S,4S)-2-oxa-5-azabicyclo[2.2.1]heptan-5-yl]-2-pyridyl]indan-1-yl]-2-oxo-ethyl]-1-fluoro-cyclopropanecarboxamide] is 100 to 1000 nM; for `Cc1cnn(C)c1-c1ccc(NC(=O)[C@@H](NC(=O)C2(F)CC2)[C@@H]2CCc3ccc(-c4ccnc(N5C[C@@H]6C[C@H]5CO6)c4)cc32)cc1O` [Example 369, N-[(1S)-2-[4-(2,4-dimethylpyrazol-3-yl)-3-hydroxy-anilino]-1-[(1R)-6-[2-[(1S,4S)-2-oxa-5-azabicyclo[2.2.1]heptan-5-yl]-4-pyridyl]indan-1-yl]-2-oxo-ethyl]-1-fluoro-cyclopropanecarboxamide] it is under 100 nM; for `Cc1cc(-c2ccc3c(c2)[C@H]([C@H](NC(=O)C2(F)CC2)C(=O)Nc2ccc(-c4c(C)n[nH]c4C)cc2)CC3)nc(N2C[C@@H]3C[C@H]2CO3)n1` [Example 370, N-[(1S)-2-[4-(3,5-dimethyl-1H-pyrazol-4-yl)anilino]-1-[(1R)-6-[6-methyl-2-[(1S,4S)-2-oxa-5-azabicyclo[2.2.1]heptan-5-yl]pyrimidin-4-yl]indan-1-yl]-2-oxo-ethyl]-1-fluoro-cyclopropanecarboxamide] it is under 100 nM.
Take `Cc1nn(C)c(C)c1-c1ccc(NC(=O)[C@@H](NC(=O)C2(F)CC2)[C@@H]2CCc3ccc(-c4ccnc(N5C[C@@H]6C[C@H]5CO6)c4)cc32)cc1` [Example 371, 1-fluoro-N-[(1S)-1-[(1R)-6-[2-[(1S,4S)-2-oxa-5-azabicyclo[2.2.1]heptan-5-yl]-4-pyridyl]indan-1-yl]-2-oxo-2-[4-(1,3,5-trimethylpyrazol-4-yl)anilino]ethyl] cyclopropanecarboxamide]: the EC50 was under 100 nM.
Next, `Cc1nn(C)cc1-c1ccc(NC(=O)[C@@H](NC(=O)C2(F)CC2)[C@@H]2CCc3ccc(-c4ccnc(N5C[C@@H]6C[C@H]5CO6)c4)cc32)cc1` [Example 372, N-[(1S)-2-[4-(1,3-dimethylpyrazol-4-yl)anilino]-1-[(1R)-6-[2-[(1S,4S)-2-oxa-5-azabicyclo[2.2.1]heptan-5-yl]-4-pyridyl]indan-1-yl]-2-oxo-ethyl]-1-fluoro-cyclopropanecarboxamide]: 100 to 1000 nM; `Cc1n[nH]c(C)c1-c1ccc(NC(=O)[C@@H](NC(=O)C2(F)CC2)[C@@H]2CCc3ccc(-c4cccc(N5C[C@@H]6C[C@H]5CN6)c4)cc32)cc1` [Example 373, N-[(1S)-1-[(1R)-6-[3-[(1S,4S)-2,5-diazabicyclo[2.2.1]heptan-2-yl]phenyl]indan-1-yl]-2-[4-(3,5-dimethyl-1H-pyrazol-4-yl)anilino]-2-oxo-ethyl]-1-fluoro-cyclopropanecarboxamide]: under 100 nM.
As to `Cc1n[nH]c(C)c1-c1ccc(NC(=O)[C@@H](NC(=O)OC2CC2)[C@@H]2CCc3ccc(-c4cc(N5C[C@@H]6C[C@H]5CO6)ncn4)cc32)cc1` [Example 374, cyclopropyl N-[(1S)-2-[4-(3,5-dimethyl-1H-pyrazol-4-yl)anilino]-1-[(1R)-6-[6-[(1S,4S)-2-oxa-5-azabicyclo[2.2.1]heptan-5-yl]pyrimidin-4-yl]indan-1-yl]-2-oxo-ethyl]carbamate], the half-maximal effective concentration (EC50) lay within 100 to 1000 nM.

One may read the EC50 as the concentration that produces a half-maximal response.

These data come from US20220162191A1, “SMALL MOLECULE MODULATORS OF IL-17” (LEO PHARMA A/S, priority 2019, published 2022).
